In paper PMC6976901 (Toxicology Reports, 2020):
Read-outs that look alike come from different tables or passages of the source.

How the values were obtained:
[1] = system: liver (hepatotoxicity); details: Hazard Evaluation Support System Integrated Platform, cited from earlier work
[2] = in vitro; details: human, Caco-2
[3] = fraction absorbed, oral; cited from earlier work

SMILES | hepatic NOEL ([1]; Table 1) | Papp [2] | reported human Fa [3] | hepatic NOEL ([1]; Table 2)
CC(C)(c1ccc(O)cc1)c1ccc(O)cc1 [bisphenol A] | 200 mg/kg/day | 32.1 ± 1.3 ×10⁻⁶ cm/s | – | –
CN(C)c1ccccc1 [N,N-dimethylaniline] | – | 99.9 ± 12.9 ×10⁻⁶ cm/s | – | –
Nc1cccc2c1CN(C1CCC(=O)NC1=O)C2=O (stereo not shown) [lenalidomide, reference compound] | – | 0.7 ± 0.1 ×10⁻⁶ cm/s | 90 [26] % | –
O=C(O)CNC(=O)c1ccccc1 [hippuric acid] | – | 0.6 ± 0.1 ×10⁻⁶ cm/s | – | –
OCCOCCN1CCN(C2=Nc3ccccc3Sc3ccccc32)CC1 [quetiapine, reference compound] | – | 3.8 ± 0.4 ×10⁻⁶ cm/s | 73 [30] % | –
COc1ccc2c3c1O[C@H]1[C@@H](O)CC[C@H]4[C@@H](C2)N(C)CC[C@@]341 [dihydrocodeine, reference compound] | – | 2.4 ± 0.1 ×10⁻⁶ cm/s | – | –
CCc1ccc(O)cc1 [4-ethylphenol] | – | 43.7 ± 2.3 ×10⁻⁶ cm/s | – | 100 mg/kg/day
Cc1cc(N)c(S(=O)(=O)O)cc1Cl [5-amino-2-chlorotoluene-4-sulfonic acid] | 1000 mg/kg/day | 2 ± 0.2 ×10⁻⁶ cm/s | – | –
Cc1cc(Cl)ccc1O [4-chloro-o-cresol] | – | 75.4 ± 3.9 ×10⁻⁶ cm/s | – | 250 mg/kg/day
CN(C)CCCOc1nn(Cc2ccccc2)c2ccccc12 [benzydamine, reference compound] | – | 1.6 ± 0.1 ×10⁻⁶ cm/s | – | –
Cc1cc2c(s1)Nc1ccccc1N=C2N1CCN(C)CC1 [olanzapine, reference compound] | – | 3.5 ± 0.3 ×10⁻⁶ cm/s | – | –
COP(=O)(OC)SCn1c(=O)oc2cc(Cl)cnc21 [azamethiphos] | – | 40.2 ± 1.8 ×10⁻⁶ cm/s | – | –
CN1CCC[C@H]1c1cccnc1 [nicotine, reference compound] | – | 5.7 ± 0.6 ×10⁻⁶ cm/s | 100 [8] % | –
Sc1ncc[nH]1 [2-mercaptoimidazole] | – | 9.1 ± 0.3 ×10⁻⁶ cm/s | – | –
Nc1ccccc1Cl [2-chloroaniline] | – | 89.3 ± 2.6 ×10⁻⁶ cm/s | – | –
Nc1ccc(C(=O)O)cc1 [p-aminobenzoic acid] | – | 58.7 ± 4 ×10⁻⁶ cm/s | – | –
CC[C@H](C)C(=O)O[C@H]1C[C@@H](C)C=C2C=C[C@H](C)[C@H](CC[C@@H]3C[C@@H](O)CC(=O)O3)[C@H]21 [lovastatin, reference compound] | – | 2.1 ± 0.1 ×10⁻⁶ cm/s | 31 [7] % | –
COc1ccc(C(=O)NCc2ccc(OCCN(C)C)cc2)cc1OC [itopride, reference compound] | – | 1.2 ± 0.3 ×10⁻⁶ cm/s | – | –
c1ccc2[nH]cnc2c1 [benzimidazole] | – | 73 ± 0.6 ×10⁻⁶ cm/s | – | –
CCCCNC(=O)NS(=O)(=O)c1ccc(C)cc1 [tolbutamide, reference compound] | – | 122 ± 11 ×10⁻⁶ cm/s | – | –
Cc1ccc(O)cc1 [p-cresol] | – | 50.7 ± 4.5 ×10⁻⁶ cm/s | – | –
CN1CCN2c3ncccc3Cc3ccccc3C2C1 (stereo not shown) [mirtazapine, reference compound] | – | 4.6 ± 0.3 ×10⁻⁶ cm/s | – | –
CC(=O)[C@H]1CC[C@H]2[C@@H]3CCC4=CC(=O)CC[C@]4(C)[C@H]3CC[C@]12C [progesterone, reference compound] | – | 11.3 ± 2 ×10⁻⁶ cm/s | – | –
Cc1ccccc1O [o-cresol] | – | 90.5 ± 6.4 ×10⁻⁶ cm/s | – | –
Cc1cccc(Nc2ccccc2C(=O)O)c1C [mefenamic acid, reference compound] | – | 180 ± 8.3 ×10⁻⁶ cm/s | – | –

SMILES | hepatic NOEL ([1]; Table 1) | Papp [2] | reported human Fa [3] | hepatic NOEL ([1]; Table 2)
Cc1ncc2n1-c1ccc(Cl)cc1C(c1ccccc1F)=NC2 [midazolam, reference compound] | – | 31.8 ± 1.9 ×10⁻⁶ cm/s | 60 [28] % | –
Cc1cc(C)cc(N)c1 [3,5-dimethylaniline] | 10 mg/kg/day | 67.4 ± 11.3 ×10⁻⁶ cm/s | – | –
COc1cc([N+](=O)[O-])ccc1N [2-methoxy-4-nitroaniline] | – | 55.2 ± 7 ×10⁻⁶ cm/s | – | 100 mg/kg/day
Nc1cccc([N+](=O)[O-])c1 [3-nitroaniline] | 15 mg/kg/day | 52 ± 5 ×10⁻⁶ cm/s | – | –
CC(C)N(CCC(C(N)=O)(c1ccccc1)c1ccccn1)C(C)C (stereo not shown) [disopyramide, reference compound] | – | 1.4 ± 0.3 ×10⁻⁶ cm/s | 83 [7] % | –
CNCC[C@@H](Oc1ccccc1C)c1ccccc1 [atomoxetine, reference compound] | – | 2.7 ± 0.1 ×10⁻⁶ cm/s | 100 [8] % | –
CCOc1ccc2ccc(=O)oc2c1 [7-ethoxycoumarin] | – | 75 ± 4.8 ×10⁻⁶ cm/s | – | –
CN/C(=N/CCSCc1nc[nH]c1C)NC#N [cimetidine, reference compound] | – | 1.7 ± 0.2 ×10⁻⁶ cm/s | 68 [7] % | –
O=C(O)c1ccc(O)cc1 [p-hydroxybenzoic acid] | – | 60.9 ± 3 ×10⁻⁶ cm/s | – | –
Cc1ccc(N)cc1C [3,4-dimethylaniline] | 50 mg/kg/day | 54.1 ± 5.8 ×10⁻⁶ cm/s | – | –
Cc1ccc(N)c(C)c1 [2,4-dimethylaniline] | 2 mg/kg/day | 66.1 ± 2 ×10⁻⁶ cm/s | – | –
CN1C(=O)CC[C@H]1c1cccnc1 [cotinine] | – | 41.2 ± 2.9 ×10⁻⁶ cm/s | 90 [8] % | –
Oc1ccc(-c2ccccc2)cc1 [4-hydroxybiphenyl] | – | 44.1 ± 2.8 ×10⁻⁶ cm/s | – | –
CC(C)(c1ccccc1)c1ccc(O)cc1 [4-α-cumylphenol] | – | 19.5 ± 3.4 ×10⁻⁶ cm/s | – | 100 mg/kg/day
COc1ccc2[nH]c([S+]([O-])Cc3ncc(C)c(OC)c3C)nc2c1 (stereo not shown) [omeprazole, reference compound] | – | – | 95 [7] % | –
CC(=O)CC(c1ccccc1)c1c(O)c2ccccc2oc1=O (stereo not shown) [warfarin, reference compound] | – | 121 ± 5 ×10⁻⁶ cm/s | – | –
Oc1ccccc1Cl [2-chlorophenol] | – | 75.2 ± 8.3 ×10⁻⁶ cm/s | – | 200 mg/kg/day
Sc1nc2ccccc2[nH]1 [2-mercaptobenzimidazole] | 2 mg/kg/day | 67.3 ± 1.8 ×10⁻⁶ cm/s | – | –
[H]/N=C(/N)c1ccc(NCc2nc3cc(C(=O)N(CCC(=O)O)c4ccccn4)ccc3n2C)cc1 [dabigatran, reference compound] | – | 3.8 ± 1.7 ×10⁻⁶ cm/s | – | –
O=C(O)Cc1ccccc1Nc1c(Cl)cccc1Cl [diclofenac, reference compound] | – | 75.6 ± 0.6 ×10⁻⁶ cm/s | 82 [25] % | –
c1ccc(Nc2ccccc2)cc1 [diphenylamine] | – | 15.1 ± 1.1 ×10⁻⁶ cm/s | – | –
N#Cc1cccnc1 [3-cyanopyridine] | 5 mg/kg/day | 56.9 ± 7 ×10⁻⁶ cm/s | – | –
Oc1nc2ccccc2[nH]1 [2-hydroxybenzimidazole] | – | 50.7 ± 1.6 ×10⁻⁶ cm/s | – | –
CC[C@H](C)C(=O)O[C@H]1C[C@H](O)C=C2C=C[C@H](C)[C@H](CC[C@@H](O)C[C@@H](O)CC(=O)O)[C@H]21 [pravastatin, reference compound] | – | 0.9 ± 0.1 ×10⁻⁶ cm/s | 13 [31] % | –
N#Cc1ccc(C#N)cc1 [terephthalonitrile] | 20 mg/kg/day | 57.3 ± 1.3 ×10⁻⁶ cm/s | – | –

SMILES | hepatic NOEL ([1]; Table 1) | Papp [2] | reported human Fa [3] | hepatic NOEL ([1]; Table 2)
O=C1CCC(N2C(=O)c3ccccc3C2=O)C(=O)N1 (stereo not shown) [thalidomide, reference compound] | – | 23.5 ± 1.9 ×10⁻⁶ cm/s | – | –
C[C@@H]1C[C@H]2[C@@H]3CCC4=CC(=O)C=C[C@]4(C)[C@@]3(F)[C@@H](O)C[C@]2(C)[C@@]1(O)C(=O)CO [dexamethasone, reference compound] | – | 9.5 ± 1.4 ×10⁻⁶ cm/s | 90 [8] % | –
Nc1cccc2c1C(=O)N(C1CCC(=O)NC1=O)C2=O (stereo not shown) [pomalidomide, reference compound] | – | 46.6 ± 5.7 ×10⁻⁶ cm/s | 73 [29] % | –
O=C1NC(=O)c2ccccc21 [phthalimide] | – | 93.3 ± 6.9 ×10⁻⁶ cm/s | – | –
O=c1ccc2ccc(O)cc2o1 [7-hydroxycoumarin] | – | 103 ± 17 ×10⁻⁶ cm/s | – | –
CNc1ccccc1 [N-methylaniline] | 5 mg/kg/day | 46.3 ± 5 ×10⁻⁶ cm/s | – | –
O=C(O)c1ccccc1 [benzoic acid] | – | 149 ± 16 ×10⁻⁶ cm/s | – | –
Oc1cccc(-c2ccccc2)c1 [3-hydroxybiphenyl] | – | 28.4 ± 2.2 ×10⁻⁶ cm/s | – | –
Cc1cccc(N)c1C [2,3-dimethylaniline] | 12 mg/kg/day | 62.4 ± 3 ×10⁻⁶ cm/s | – | –
Nc1cccc(S(=O)(=O)O)c1 [3-aminobenzenesulfonic acid] | – | 2.1 ± 0.3 ×10⁻⁶ cm/s | – | –
Oc1ccccc1-c1ccccc1 [2-hydroxybiphenyl] | – | 33.4 ± 2.9 ×10⁻⁶ cm/s | – | –
Nc1ccccc1-c1ccccc1 [2-aminobiphenyl] | 100 mg/kg/day | 57.6 ± 1.1 ×10⁻⁶ cm/s | – | –
CCCCOC(=O)c1ccccc1C(=O)O [monobutyl phthalate] | – | 31.8 ± 0.8 ×10⁻⁶ cm/s | – | –
CCC(C)c1ccc(O)cc1 (stereo not shown) [4-sec-butylphenol] | – | 40.2 ± 1.9 ×10⁻⁶ cm/s | – | –
CC(C)NCC(O)COc1cccc2ccccc12 (stereo not shown) [propranolol, reference compound] | – | 2.9 ± 0.3 ×10⁻⁶ cm/s | – | –
Nc1cccc(O)c1 [3-aminophenol] | – | 51.3 ± 2.3 ×10⁻⁶ cm/s | – | –
CC(C)NCC(O)COc1ccc(CC(N)=O)cc1 (stereo not shown) [atenolol] | – | – | 50 [7] % | –
COCCc1ccc(OCC(O)CNC(C)C)cc1 (stereo not shown) [metoprolol, reference compound] | – | 3.4 ± 0.1 ×10⁻⁶ cm/s | – | –
Nc1ccccc1 [aniline] | – | 54.4 ± 2.6 ×10⁻⁶ cm/s | – | –
CCNc1ccccc1 [N-ethylaniline] | 5 mg/kg/day | 66 ± 1 ×10⁻⁶ cm/s | – | –
Oc1ccc(Cl)cc1 [4-chlorophenol] | – | 43.1 ± 3.7 ×10⁻⁶ cm/s | – | –
CCc1cccc(O)c1 [3-ethylphenol] | – | 51.5 ± 5 ×10⁻⁶ cm/s | – | 300 mg/kg/day
Cc1cccc(O)c1 [m-cresol] | 100 mg/kg/day | 85.1 ± 3.5 ×10⁻⁶ cm/s | – | –
